What was measured:
Type in all cases: cell-based
[1] = biological target: T1, Ba/F3 cells with EGFR exon 20 NPG Ins D770_N771 (Homo sapiens, UniProt P00533, INS770NPG); test: EGFR activity: Ba/F3 cell viability (CellTiter-Glo, 72 h), EGFR exon 20 NPG insertion; conditions: EGFR exon 20 NPG Ins D770_N771, cell viability, read-out: BaF3 NPG IC50
T1 construct: expressed in transfected cells; host or cells: Ba/F3 (murine pro-B cells), retroviral transduction, puromycin selection, IL3-independent pool

Ba/F3 cells with EGFR WT = biological target: T2, Ba/F3 cells with EGFR WT (Homo sapiens, UniProt P00533); test: EGFR activity: Ba/F3 cell viability (CellTiter-Glo, 72 h), EGFR WT; conditions: read-out: BaF3 WT IC50
T2 construct: expressed in transfected cells; host or cells: Ba/F3 (murine pro-B cells), retroviral transduction, puromycin selection, maintained with EGF

[2] = biological target: T3, Ba/F3 cells with EGFR exon 20 ASV Ins V769_D770 (Homo sapiens, UniProt P00533, INS769ASV); test: EGFR activity: Ba/F3 cell viability (CellTiter-Glo, 72 h), EGFR exon 20 ASV insertion; conditions: EGFR exon 20 ASV Ins V769_D770, cell viability, read-out: BaF3 ASV IC50
T3 construct: expressed in transfected cells; host or cells: Ba/F3 (murine pro-B cells), retroviral transduction, puromycin selection, IL3-independent pool

pEGFR in CUTO14 cells = biological target: T4, pEGFR in CUTO14 cells (Homo sapiens, UniProt P00533, DUP767-769); test: Inhibitor activity on EGFR phosphorylation (pEGFR AlphaLISA, 2 h), CUTO14 cells
T4 construct: endogenous in cells; host or cells: CUTO14 cells
Method: CUTO14 cells were obtained from Dr. Robert C. Doebele at the University of Colorado.
Shake 350 rpm for 1 hr in the dark • 3.4 Prepare donor mix under low light conditions prior to use. Dispense 5 μL of donor mix to all the wells. Mix well on the shaker, seal and wrap in aluminum foil and incubate 1.5 hrs at room temperature in the dark • 3.5 Transfer 18.5 μL mixture to OptiPlate 384, and read using an Envision.

T3 sequence (P00533 with tags, fused parts or gaps INS769ASV): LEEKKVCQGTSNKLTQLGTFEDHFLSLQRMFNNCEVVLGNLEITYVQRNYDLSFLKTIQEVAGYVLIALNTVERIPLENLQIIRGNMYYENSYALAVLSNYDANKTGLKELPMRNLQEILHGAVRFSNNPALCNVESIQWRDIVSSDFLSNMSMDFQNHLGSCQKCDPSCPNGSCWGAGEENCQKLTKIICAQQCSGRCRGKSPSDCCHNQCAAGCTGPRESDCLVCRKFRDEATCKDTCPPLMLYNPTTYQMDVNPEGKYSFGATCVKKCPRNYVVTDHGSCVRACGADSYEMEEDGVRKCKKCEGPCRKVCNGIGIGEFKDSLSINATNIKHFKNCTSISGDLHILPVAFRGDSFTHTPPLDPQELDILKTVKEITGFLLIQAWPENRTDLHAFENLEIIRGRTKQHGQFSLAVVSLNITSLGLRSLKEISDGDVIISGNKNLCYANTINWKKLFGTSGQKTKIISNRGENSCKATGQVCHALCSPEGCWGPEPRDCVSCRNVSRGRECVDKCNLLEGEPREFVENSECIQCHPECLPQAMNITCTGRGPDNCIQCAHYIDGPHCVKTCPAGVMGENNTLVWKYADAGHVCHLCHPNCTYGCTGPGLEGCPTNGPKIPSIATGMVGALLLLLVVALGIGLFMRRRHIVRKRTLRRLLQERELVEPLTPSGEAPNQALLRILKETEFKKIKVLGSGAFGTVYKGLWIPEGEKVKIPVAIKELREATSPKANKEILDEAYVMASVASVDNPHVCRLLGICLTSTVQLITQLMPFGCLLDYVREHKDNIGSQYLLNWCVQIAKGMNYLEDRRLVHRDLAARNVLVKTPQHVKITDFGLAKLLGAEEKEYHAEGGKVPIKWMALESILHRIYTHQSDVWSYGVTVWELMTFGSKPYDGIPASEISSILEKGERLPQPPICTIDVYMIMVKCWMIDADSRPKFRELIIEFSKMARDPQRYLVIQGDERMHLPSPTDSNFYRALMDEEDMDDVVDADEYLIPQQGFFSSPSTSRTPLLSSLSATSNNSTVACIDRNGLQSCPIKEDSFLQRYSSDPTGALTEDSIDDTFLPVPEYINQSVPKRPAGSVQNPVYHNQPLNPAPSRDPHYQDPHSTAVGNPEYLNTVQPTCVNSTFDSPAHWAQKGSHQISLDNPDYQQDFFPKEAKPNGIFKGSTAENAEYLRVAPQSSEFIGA
T4 sequence (P00533 with tags, fused parts or gaps DUP767-769): as the sequence (P00533 with tags, fused parts or gaps INS769ASV) above
T2 sequence (P00533 25-1210): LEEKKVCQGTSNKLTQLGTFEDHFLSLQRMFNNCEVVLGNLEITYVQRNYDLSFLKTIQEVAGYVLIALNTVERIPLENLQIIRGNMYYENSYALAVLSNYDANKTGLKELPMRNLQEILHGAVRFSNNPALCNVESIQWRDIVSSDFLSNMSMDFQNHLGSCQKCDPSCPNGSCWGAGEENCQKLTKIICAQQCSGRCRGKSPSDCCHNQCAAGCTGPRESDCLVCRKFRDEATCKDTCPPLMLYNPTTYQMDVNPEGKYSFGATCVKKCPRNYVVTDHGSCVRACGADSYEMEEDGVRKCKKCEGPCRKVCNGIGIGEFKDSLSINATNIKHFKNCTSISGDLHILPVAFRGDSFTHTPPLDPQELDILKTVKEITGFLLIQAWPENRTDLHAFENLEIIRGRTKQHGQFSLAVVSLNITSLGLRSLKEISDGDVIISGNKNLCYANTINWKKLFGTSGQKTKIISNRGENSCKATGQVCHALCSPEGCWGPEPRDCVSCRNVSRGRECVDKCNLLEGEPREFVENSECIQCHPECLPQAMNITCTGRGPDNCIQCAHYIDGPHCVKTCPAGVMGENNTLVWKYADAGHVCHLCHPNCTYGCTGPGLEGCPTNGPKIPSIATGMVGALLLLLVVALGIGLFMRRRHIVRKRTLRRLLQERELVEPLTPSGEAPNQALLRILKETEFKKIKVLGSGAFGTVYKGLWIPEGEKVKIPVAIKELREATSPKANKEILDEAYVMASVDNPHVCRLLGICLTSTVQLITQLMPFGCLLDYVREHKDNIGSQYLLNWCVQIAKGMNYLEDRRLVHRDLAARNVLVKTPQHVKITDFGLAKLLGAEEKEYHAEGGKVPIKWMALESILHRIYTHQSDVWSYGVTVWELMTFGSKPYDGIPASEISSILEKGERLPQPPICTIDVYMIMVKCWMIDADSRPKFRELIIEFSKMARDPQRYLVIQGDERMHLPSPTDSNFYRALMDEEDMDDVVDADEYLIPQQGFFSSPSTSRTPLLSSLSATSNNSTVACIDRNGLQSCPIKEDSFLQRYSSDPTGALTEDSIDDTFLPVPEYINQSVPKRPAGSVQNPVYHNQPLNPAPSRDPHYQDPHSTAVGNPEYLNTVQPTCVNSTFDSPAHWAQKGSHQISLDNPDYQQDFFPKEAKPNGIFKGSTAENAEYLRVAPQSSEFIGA
T1 sequence (P00533 with tags, fused parts or gaps INS770NPG): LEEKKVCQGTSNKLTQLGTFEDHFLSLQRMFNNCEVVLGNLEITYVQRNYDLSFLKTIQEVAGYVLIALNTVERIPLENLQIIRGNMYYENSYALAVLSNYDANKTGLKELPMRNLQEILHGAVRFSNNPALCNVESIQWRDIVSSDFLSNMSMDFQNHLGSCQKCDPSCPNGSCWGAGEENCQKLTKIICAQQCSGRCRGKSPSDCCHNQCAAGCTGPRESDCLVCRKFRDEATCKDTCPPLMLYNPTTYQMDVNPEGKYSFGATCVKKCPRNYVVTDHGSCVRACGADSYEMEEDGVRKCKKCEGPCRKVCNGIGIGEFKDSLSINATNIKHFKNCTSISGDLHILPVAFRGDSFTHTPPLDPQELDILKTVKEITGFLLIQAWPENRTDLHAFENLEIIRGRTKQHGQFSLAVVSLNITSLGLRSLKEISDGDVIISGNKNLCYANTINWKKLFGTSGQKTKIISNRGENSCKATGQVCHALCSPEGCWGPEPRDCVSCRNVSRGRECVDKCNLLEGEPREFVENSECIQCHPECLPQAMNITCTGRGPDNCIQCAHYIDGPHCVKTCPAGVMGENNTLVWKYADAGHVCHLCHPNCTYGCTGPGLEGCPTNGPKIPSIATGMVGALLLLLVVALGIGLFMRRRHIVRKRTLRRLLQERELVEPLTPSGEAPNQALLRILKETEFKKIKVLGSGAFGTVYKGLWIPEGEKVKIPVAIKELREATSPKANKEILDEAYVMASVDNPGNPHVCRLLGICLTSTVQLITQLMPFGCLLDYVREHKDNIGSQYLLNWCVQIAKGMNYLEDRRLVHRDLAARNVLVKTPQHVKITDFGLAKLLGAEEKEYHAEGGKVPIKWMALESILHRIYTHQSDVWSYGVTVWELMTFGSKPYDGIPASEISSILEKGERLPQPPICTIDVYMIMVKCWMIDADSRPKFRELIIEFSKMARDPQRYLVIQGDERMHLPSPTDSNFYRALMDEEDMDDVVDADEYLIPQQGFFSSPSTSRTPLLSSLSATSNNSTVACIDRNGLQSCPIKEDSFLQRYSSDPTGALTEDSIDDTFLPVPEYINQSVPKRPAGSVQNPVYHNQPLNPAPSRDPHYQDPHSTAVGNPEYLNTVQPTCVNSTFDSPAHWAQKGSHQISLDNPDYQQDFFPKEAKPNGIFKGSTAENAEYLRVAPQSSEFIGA

IC50 (pEGFR in CUTO14 cells) [nM] | SMILES | IC50 [1] [nM] | IC50 (Ba/F3 cells with EGFR WT) [nM] | IC50 [2] [nM]
< 100 | C=CC(=O)N1[C@H](C)CC[C@H]1C#Cc1cnccc1-c1[nH]c2c(c1Nc1cccc(F)c1OC)C(=O)NCC2 [compound 257] | < 100 | < 100 | < 100
< 100 | C=CC(=O)NC1(C#Cc2cnccc2-c2[nH]c3c(c2Nc2cccc(Cl)c2OC)C(=O)NCC3)CCC1 [compound 261] | < 100 | 100 to 1000 | < 100
< 100 | C=CC(=O)NC1(C#Cc2cnccc2-c2[nH]c3c(c2Nc2cccc(Cl)c2OC)C(=O)NCC3)COC1 [compound 264, N-{3-[2-(4-{3-[(3-chloro-2-methoxyphenyl)amino]-4-oxo-1H,5H,6H,7H-pyrrolo[3,2-c]pyridin-2-yl}pyridin-3-yl)ethynyl]oxetan-3-yl}prop-2-enamide] | < 100 | 100 to 1000 | < 100
< 100 | C=CC(=O)N1CC(C)(C)C[C@@H]1COc1cnccc1-c1[nH]c2c(c1Nc1cccc(Cl)c1OC)C(=O)NCC2 [compound 265] | < 100 | < 100 | < 100
< 100 | C=CC(=O)N1[C@H](COc2cnccc2-c2[nH]c3c(c2Nc2cccc(Cl)c2OC)C(=O)NCC3)C[C@H]1C [compound 270] | < 100 | 100 to 1000 | < 100
< 100 | C=CC(=O)N1[C@@H](COc2cnccc2-c2[nH]c3c(c2Nc2cccc(Cl)c2OC)C(=O)NCC3)C[C@H]1C [compound 271] | < 100 | < 100 | < 100
< 100 | C=CC(=O)N1[C@@H](COc2cnccc2-c2[nH]c3c(c2Nc2cccc(Cl)c2OC)C(=O)NCC3)C[C@@H]1C [compound 272] | < 100 | < 100 | < 100
< 100 | C=CC(=O)N1[C@H](COc2cnccc2-c2[nH]c3c(c2Nc2cccc(Cl)c2OC)C(=O)NCC3)C[C@@H]1C [compound 273] | < 100 | < 100 | < 100
100 to 1000 | CC#CC(=O)N1CCOC[C@H]1COc1cnccc1-c1[nH]c2c(c1Nc1cccc(F)c1OC)C(=O)NCC2 [compound 292] | 100 to 1000 | > 1000 | 100 to 1000
< 100 | C=CC(=O)N1[C@@H](C#Cc2cnccc2-c2[nH]c3c(c2Nc2cccc(F)c2OC)C(=O)NCC3)C[C@@H]2C[C@@H]21 [compound 301] | < 100 | 100 to 1000 | < 100
< 100 | C=CC(=O)N1CCC[C@]1(C)C#Cc1cnccc1-c1[nH]c2c(c1Nc1cccc(F)c1CC)C(=O)NCC2 [compound 305] | < 100 | 100 to 1000 | < 100
< 100 | CC#CC(=O)N1CC[C@]1(C)COc1cnccc1-c1[nH]c2c(c1Nc1cccc(F)c1OC)C(=O)NCC2 [compound 307] | < 100 | 100 to 1000 | < 100
< 100 | CC#CC(=O)N1CC[C@]1(C)COc1cnccc1-c1[nH]c2c(c1Nc1cccc(Cl)c1OC)C(=O)NCC2 [compound 308] | < 100 | 100 to 1000 | < 100
100 to 1000 | C=CC(=O)NC1(C#Cc2cnccc2-c2[nH]c3c(c2Nc2cccc(F)c2OC)C(=O)NCC3)CN(C)C1 [compound 336] | 100 to 1000 | > 1000 | 100 to 1000
< 100 | CC#CC(=O)N1CC[C@@H]1COc1cnccc1-c1[nH]c2c(c1Nc1cc(F)cc(Cl)c1OC)C(=O)NCC2 [compound 346] | < 100 | 100 to 1000 | < 100
< 100 | CC#CC(=O)N1CC[C@@H]1COc1cnccc1-c1[nH]c2c(c1Nc1cc(F)cc(F)c1OC)C(=O)NCC2 [compound 347] | < 100 | 100 to 1000 | < 100
< 100 | CC#CC(=O)N1CC[C@@H]1COc1cnccc1-c1[nH]c2c(c1Nc1cccc(F)c1F)C(=O)NCC2 [compound 350] | < 100 | 100 to 1000 | < 100
100 to 1000 | CC#CC(=O)N1CC[C@@]1(C)COc1cnccc1-c1[nH]c2c(c1Nc1cccc(F)c1OC)C(=O)NCC2 [compound 357] | 100 to 1000 | > 1000 | 100 to 1000
100 to 1000 | CC#CC(=O)N1CC[C@@]1(C)COc1cnccc1-c1[nH]c2c(c1Nc1cccc(Cl)c1OC)C(=O)NCC2 [compound 358] | 100 to 1000 | > 1000 | 100 to 1000
100 to 1000 | C=C(F)C(=O)N1CC[C@@H]1COc1cnccc1-c1[nH]c2c(c1Nc1cc(F)cc(F)c1OC)C(=O)NCC2 [compound 365] | 100 to 1000 | 100 to 1000 | 100 to 1000

IC50 (pEGFR in CUTO14 cells) [nM] | SMILES | IC50 [1] [nM] | IC50 (Ba/F3 cells with EGFR WT) [nM] | IC50 [2] [nM]
< 100 | CC#CC(=O)N1CC[C@@H]1C#Cc1cnccc1-c1[nH]c2c(c1Nc1cccc(F)c1OC)C(=O)NCC2 [compound 373] | < 100 | < 100 | < 100
< 100 | CC#CC(=O)N1CC[C@H]1C#Cc1cnccc1-c1[nH]c2c(c1Nc1cccc(F)c1OC)C(=O)NCC2 [compound 374] | < 100 | 100 to 1000 | < 100
< 100 | C=CC(=O)NC1(C#Cc2cnccc2-c2[nH]c3c(c2Nc2cccc(Cl)c2OC)C(=O)NCC3)CCOCC1 [compound 382] | < 100 | 100 to 1000 | < 100
100 to 1000 | C=CC(=O)NC1(C#Cc2cnccc2-c2[nH]c3c(c2Nc2cccc(F)c2OC)C(=O)NCC3)CCOCC1 [compound 383] | < 100 | > 1000 | 100 to 1000
< 100 | C=CC(=O)NC(C)(C)C#Cc1cnccc1-c1[nH]c2c(c1Nc1cccc(F)c1C)C(=O)NCC2 [compound 385] | < 100 | < 100 | < 100
< 100 | C=CC(=O)N[C@@]1(C#Cc2cnccc2-c2[nH]c3c(c2Nc2cccc(F)c2C)C(=O)NCC3)CCOC1 [compound 386] | < 100 | 100 to 1000 | < 100
< 100 | C=CC(=O)N[C@]1(C#Cc2cnccc2-c2[nH]c3c(c2Nc2cccc(F)c2C)C(=O)NCC3)CCOC1 [compound 387] | < 100 | 100 to 1000 | < 100
< 100 | COc1c(Cl)cccc1Nc1c(-c2ccncc2C#CC(C)(C)NC(=O)/C=C/CN(C)C)[nH]c2c1C(=O)NCC2 [compound 388] | < 100 | 100 to 1000 | < 100
< 100 | C=C(F)C(=O)NC(C)(C)C#Cc1cnccc1-c1[nH]c2c(c1Nc1cccc(F)c1OC)C(=O)NCC2 [compound 389] | < 100 | 100 to 1000 | < 100
< 100 | C=C(F)C(=O)NC(C)(C)C#Cc1cnccc1-c1[nH]c2c(c1Nc1cccc(Cl)c1OC)C(=O)NCC2 [compound 390] | < 100 | 100 to 1000 | < 100
100 to 1000 | COc1c(F)cccc1Nc1c(-c2ccncc2C#CC(C)(C)NC(=O)/C=C/CN2CCOCC2)[nH]c2c1C(=O)NCC2 [compound 391] | 100 to 1000 | > 1000 | 100 to 1000
< 100 | COc1c(F)cccc1Nc1c(-c2ccncc2C#CC(C)(C)NC(=O)/C=C/CN2CCCC2)[nH]c2c1C(=O)NCC2 [compound 392] | < 100 | 100 to 1000 | < 100
< 100 | COc1c(F)cccc1Nc1c(-c2ccncc2C#CC(C)(C)NC(=O)/C=C/CN2CC(OC)C2)[nH]c2c1C(=O)NCC2 [compound 393] | < 100 | 100 to 1000 | < 100
100 to 1000 | COc1c(F)cccc1Nc1c(-c2ccncc2C#CC(C)(C)NC(=O)/C=C/CN[C@@H]2CCOC2)[nH]c2c1C(=O)NCC2 [compound 394] | 100 to 1000 | > 1000 | 100 to 1000
100 to 1000 | COc1c(F)cccc1Nc1c(-c2ccncc2C#CC(C)(C)NC(=O)/C=C/CN[C@H]2CCOC2)[nH]c2c1C(=O)NCC2 [compound 395] | 100 to 1000 | > 1000 | 100 to 1000
< 100 | C=CC(=O)NC1(C#Cc2cnccc2-c2[nH]c3c(c2Nc2cccc(Cl)c2OC)C(=O)NCC3)CC(F)(F)C1 [compound 400] | < 100 | 100 to 1000 | < 100
< 100 | C=CC(=O)NC1(C#Cc2cnccc2-c2[nH]c3c(c2Nc2cccc(F)c2OC)C(=O)NCC3)CC(F)(F)C1 [compound 401] | < 100 | 100 to 1000 | < 100
< 100 | CC#CC(=O)N1CC[C@@H]1COc1cnccc1-c1[nH]c2c(c1Nc1cccc(F)c1Cl)C(=O)NCC2 [compound 406] | < 100 | < 100 | < 100
< 100 | CC#CC(=O)N1CC[C@@H]1COc1cnccc1-c1[nH]c2c(c1Nc1cccc(Cl)c1F)C(=O)NCC2 [compound 407] | < 100 | < 100 | < 100

Source: US20230364070A1, “PYRROLO[3,2-C]PYRIDIN-4-ONE DERIVATIVES USEFUL IN THE TREATMENT OF CANCER” (Scorpion Therapeutics, Inc., priority 2020, published 2023)
